Test results as given in US11932628B2, “Selective small molecule peptidomimetic melanocortin ligands” (REGENTS OF THE UNIVERSITY OF MINNESOTA, priority 2021, dated 2024).

Key:
[1] = target: T1, mMC4R (Mus musculus, UniProt P56450); experiment: Schild analysis of antagonist activity at mMC4R; conditions: for mMC4R Antagonist pA2: Schild analysis
Procedure: The antagonist activity may also be reported as a Ki value, which is the inverse Log of pA2. […] Compounds were dissolved in DMSO at a stock concentration of 10^−2 M and stored at −20° C. until assayed. HEK-293 cells stably expressing the selected melanocortin receptors were transiently transfected with 4 μg of CRE/β-galactosidase reporter gene. Briefly, 5000-15000 post transfection cells were plated into collagen treated 96-well plates (Nunc) and incubated overnight. […] The assay media was aspirated, and 50 μL of lysis buffer (250 mM Tris-HCl pH=8.0 and 0.1% Triton X-100) was added. The plates were stored at −80° C. overnight. The plates containing the cell lysates were thawed the following day. Aliquots of 10 μL were taken from each well and transferred to another 96-well plate for relative protein determination. To the cell lysate plates, 40 μL of phosphate-buffered saline with 0.5% BSA was added to each well. Subsequently, 150 μL of substrate buffer (60 mM sodium phosphate, 1 mM MgCl2, 10 mM KCl, 5 mM β-mercaptoethanol, 2 mg/mL ONPG) was added to each well and the plates were incubated at 37° C. The sample absorbance, OD405, was measured using a 96-well plate reader (Molecular Devices). The relative protein was determined by adding 200 μL of 1:5 dilution BioRad G250 protein dye:water to the 10 μL of cell lysate sample taken previously, and the OD595 was measured on a 96-well plate reader (Molecular Devices). Data points were normalized to forskolin and the relative protein content were used as positive controls. The EC50 values represent the mean of three or more independent experiments. The EC50 estimates, and their associated standard errors of the mean, were determined by fitting the data to a nonlinear least-squares analysis using the PRISM program (v4.0, GraphPad Inc.).
The reported values are on a log scale. In order to put them into perspective, their approximate binding disassociation constants, Ki values, can be calculated through the following relationship pA2=−Log10 (Ki).

[2] = target: mMC1R (Mus musculus, UniProt Q01727); experiment: cAMP based functional bioassay (CRE/β-galactosidase reporter), agonist activity at mMC1R; conditions: for mMC1R Activity @ 10 μM (class) / mMC1R Activity @ 10 μM (relative activity, percent): reported where receptor not activated to full activity
mMC1R, sequence (Q01727 whole entry): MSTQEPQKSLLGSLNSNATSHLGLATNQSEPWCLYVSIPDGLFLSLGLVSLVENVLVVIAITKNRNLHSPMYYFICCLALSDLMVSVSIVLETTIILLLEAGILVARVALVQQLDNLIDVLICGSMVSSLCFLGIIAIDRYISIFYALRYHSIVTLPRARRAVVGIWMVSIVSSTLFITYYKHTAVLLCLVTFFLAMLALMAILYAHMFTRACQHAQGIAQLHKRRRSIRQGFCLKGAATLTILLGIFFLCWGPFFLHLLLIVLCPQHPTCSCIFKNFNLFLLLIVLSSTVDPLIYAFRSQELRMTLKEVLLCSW
Procedure: (§1) The compounds were evaluated using a whole cell assay.
(§2) Compounds were dissolved in DMSO at a stock concentration of 10^−2 M and stored at −20° C. until assayed. HEK-293 cells stably expressing the selected melanocortin receptors were transiently transfected with 4 μg of CRE/β-galactosidase reporter gene. Briefly, 5000-15000 post transfection cells were plated into collagen treated 96-well plates (Nunc) and incubated overnight. […] The assay media was aspirated, and 50 μL of lysis buffer (250 mM Tris-HCl pH=8.0 and 0.1% Triton X-100) was added. The plates were stored at −80° C. overnight. The plates containing the cell lysates were thawed the following day. Aliquots of 10 μL were taken from each well and transferred to another 96-well plate for relative protein determination. To the cell lysate plates, 40 μL of phosphate-buffered saline with 0.5% BSA was added to each well. Subsequently, 150 μL of substrate buffer (60 mM sodium phosphate, 1 mM MgCl2, 10 mM KCl, 5 mM β-mercaptoethanol, 2 mg/mL ONPG) was added to each well and the plates were incubated at 37° C. The sample absorbance, OD405, was measured using a 96-well plate reader (Molecular Devices). The relative protein was determined by adding 200 μL of 1:5 dilution BioRad G250 protein dye:water to the 10 μL of cell lysate sample taken previously, and the OD595 was measured on a 96-well plate reader (Molecular Devices). Data points were normalized to forskolin and the relative protein content were used as positive controls. The EC50 values represent the mean of three or more independent experiments. The EC50 estimates, and their associated standard errors of the mean, were determined by fitting the data to a nonlinear least-squares analysis using the PRISM program (v4.0, GraphPad Inc.).
(§3) The results are tabulated in the form of EC50 values. In the case where the particular receptor was not activated to full activity at 100,000 nM, then the relative activity was reported.

[3] = target: mMC5R (Mus musculus, UniProt P41149); experiment: cAMP based functional bioassay (CRE/β-galactosidase reporter), agonist activity at mMC5R
mMC5R, sequence (P41149 whole entry): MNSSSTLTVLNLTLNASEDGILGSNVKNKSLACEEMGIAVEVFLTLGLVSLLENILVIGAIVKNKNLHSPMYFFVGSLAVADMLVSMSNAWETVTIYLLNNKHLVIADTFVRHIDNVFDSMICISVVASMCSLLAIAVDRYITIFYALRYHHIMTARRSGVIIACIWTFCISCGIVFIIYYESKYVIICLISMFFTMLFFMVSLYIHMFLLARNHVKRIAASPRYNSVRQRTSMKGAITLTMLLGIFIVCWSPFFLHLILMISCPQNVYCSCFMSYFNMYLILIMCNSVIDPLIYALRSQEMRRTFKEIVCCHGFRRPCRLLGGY
Procedure: as §1, §2, §3

[4] = target: mMC3R (Mus musculus, UniProt P33033); experiment: cAMP based functional bioassay (CRE/β-galactosidase reporter), agonist activity at mMC3R
mMC3R, sequence (P33033 whole entry): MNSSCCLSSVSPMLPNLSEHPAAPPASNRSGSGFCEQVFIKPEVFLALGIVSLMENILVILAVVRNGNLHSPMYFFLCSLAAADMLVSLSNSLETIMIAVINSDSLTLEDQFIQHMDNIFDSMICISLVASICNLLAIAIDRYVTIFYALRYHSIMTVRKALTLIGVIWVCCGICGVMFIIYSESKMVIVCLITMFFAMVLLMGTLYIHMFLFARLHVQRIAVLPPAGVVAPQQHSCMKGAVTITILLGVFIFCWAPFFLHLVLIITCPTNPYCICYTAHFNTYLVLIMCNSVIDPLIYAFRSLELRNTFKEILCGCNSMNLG
Procedure: as §1, §2, §3

[5] = target: T1, mMC4R; experiment: cAMP based functional bioassay (CRE/β-galactosidase reporter), agonist activity at mMC4R; design: Emax: dose or concentration left out as unconfirmed; conditions: for mMC4R Activity @ 10 μM (class) / mMC4R Activity @ 10 μM (relative activity, percent): reported where receptor not activated to full activity; for Emax: read-out: maximal activation at the melanocortin-4 receptor
Procedure: as §1, §2, §3

T1 sequence (P56450 whole entry): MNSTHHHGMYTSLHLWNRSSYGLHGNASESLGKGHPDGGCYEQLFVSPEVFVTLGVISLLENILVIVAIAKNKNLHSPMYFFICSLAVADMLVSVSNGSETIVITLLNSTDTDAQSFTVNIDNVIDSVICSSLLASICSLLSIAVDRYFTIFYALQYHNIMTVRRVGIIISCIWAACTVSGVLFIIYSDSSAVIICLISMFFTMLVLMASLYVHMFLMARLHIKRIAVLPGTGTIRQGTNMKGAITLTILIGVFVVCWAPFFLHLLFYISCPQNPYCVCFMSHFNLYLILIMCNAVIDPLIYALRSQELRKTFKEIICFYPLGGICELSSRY

Structure (SMILES) | Kb [1] | mMC1R Activity @ 10 μM (class) [2] | mMC1R Activity @ 10 μM (relative activity, percent) [2] | EC50 [3] | EC50 [4] | mMC4R Activity @ 10 μM (class) [5] | mMC4R Activity @ 10 μM (relative activity, percent) [5] | Ki [1] | mMC4R Antagonist pA2 [1] | EC50 values at the melanocortin-3 receptor (in words) [4] | Emax [5] | EC50 [2]
CC(C)C[C@@H]1CNC(=N)N1C[C@@H]1CCCN1C[C@@H](Cc1ccccc1)N1C[C@@H]([C@@H](C)O)N(CC23CC4CC(CC(C4)C2)C3)C1=N [TPI 2509-13, (R)-1-((S)-3-(adamantan-1-ylmethyl)-2-imino-1-((R)-1-((S)-2-(((R)-2-imino-5-isobutylimidazolidin-1-yl)methyl)pyrrolidin-1-yl)-3-phenylpropan-2-yl)imidazolidin-4-yl)ethanol] | 2510 nM | B (B: >51%) | 41% | 810 ± 280 nM | 360 ± 40 nM | B (B: >51%) | 58% |  |  |  |  | 
CC(C)C[C@@H]1CNC(=N)N1C[C@@H]1CCCN1C[C@@H](Cc1ccccc1)N1C[C@@H]([C@@H](C)O)N(CC2CCC(C(C)(C)C)CC2)C1=N (stereo partly drawn) [TPI 2509-14, (R)-1-((S)-3-((4-(tert-butyl)cyclohexyl)methyl)-2-imino-1-((R)-1-((S)-2-(((R)-2-imino-5-isobutylimidazolidin-1-yl)methyl)pyrrolidin-1-yl)-3-phenylpropan-2-yl)imidazolidin-4-yl)ethanol] | 100 nM | B (B: >51%) | 58% | 530 ± 50 nM | 310 ± 60 nM | A (A: <50%) |  | 100 nM | 7.0±0.7 | nanomolar | > 20% | 
CC(C)[C@@H]1CNC(=N)N1C[C@@H]1CCCN1C[C@@H](CC1CCCCC1)N1C[C@@H]([C@@H](C)O)N(CC23CC4CC(CC(C4)C2)C3)C1=N [TPI 2509-22, (R)-1-((S)-3-(adamantan-1-ylmethyl)-1-((R)-1-cyclohexyl-3-((S)-2-(((R)-2-imino-5-isopropylimidazolidin-1-yl)methyl)pyrrolidin-1-yl)propan-2-yl)-2-iminoimidazolidin-4-yl)ethanol] | 1580 nM |  |  | 600 ± 210 nM | 370 ± 90 nM | A (A: <50%) | 49% |  |  |  |  | 200 ± 80 nM
CC(C)[C@@H]1CNC(=N)N1C[C@@H]1CCCN1C[C@@H](Cc1ccccc1)N1C[C@@H]([C@@H](C)O)N(CC23CC4CC(CC(C4)C2)C3)C1=N [TPI 2509-31, (R)-1-((S)-3-(adamantan-1-ylmethyl)-2-imino-1-((R)-1-((S)-2-(((R)-2-imino-5-isopropylimidazolidin-1-yl)methyl)pyrrolidin-1-yl)-3-phenylpropan-2-yl)imidazolidin-4-yl)ethanol] | 1580 nM |  |  | 180 ± 90 nM | 360 ± 10 nM |  | 50% |  |  |  |  | 440 ± 140 nM
CC(C)[C@@H]1CNC(=N)N1C[C@@H]1CCCN1C[C@@H](Cc1ccccc1)N1C[C@@H]([C@@H](C)O)N(CC2CCC(C(C)(C)C)CC2)C1=N (stereo partly drawn) [TPI 2509-32, (R)-1-((S)-3-((4-(tert-butyl)cyclohexyl)methyl)-2-imino-1-((R)-1-((S)-2-(((R)-2-imino-5-isopropylimidazolidin-1-yl)methyl)pyrrolidin-1-yl)-3-phenylpropan-2-yl)imidazolidin-4-yl)ethanol] | 316 nM |  |  | 490 ± 155 nM | 420 ± 120 nM | A (A: <50%) |  | 320 nM | 6.5±0.5 | nanomolar | > 20% | 600 ± 340 nM

Continued, values first:

Kb [1] | mMC1R Activity @ 10 μM (class) [2] | mMC1R Activity @ 10 μM (relative activity, percent) [2] | EC50 [3] | EC50 [4] | mMC4R Activity @ 10 μM (class) [5] | mMC4R Activity @ 10 μM (relative activity, percent) [5] | Ki [1] | mMC4R Antagonist pA2 [1] | EC50 values at the melanocortin-3 receptor (in words) [4] | Emax [5] | EC50 [2] | Structure (SMILES)
1260 nM |  |  | 150 ± 20 nM | 220 ± 30 nM | A (A: <50%) | 41% |  |  |  |  | 300 ± 120 nM | CC(C)[C@@H]1CNC(=N)N1C[C@@H]1CCCN1C[C@@H](CC1CCCCC1)N1C[C@@H]([C@@H](C)O)N(CC2CCC(C(C)(C)C)CC2)C1=N (stereo partly drawn) [TPI 2509-23, (R)-1-((S)-3-((4-(tert-butyl)cyclohexyl)methyl)-1-((R)-1-cyclohexyl-3-((S)-2-(((R)-2-imino-5-isopropylimidazolidin-1-yl)methyl)pyrrolidin-1-yl)propan-2-yl)-2-iminoimidazolidin-4-yl)ethanol]
1580 nM | B (B: >51%) |  | 540 ± 50 nM | 350 ± 20 nM | A (A: <50%) | 50% |  |  |  |  |  | CCC[C@@H]1CN([C@H](CC2CCCCC2)CN2CCC[C@H]2CN2C(=N)NC[C@H]2C(C)C)C(=N)N1CC1CCC(C(C)(C)C)CC1 (stereo partly drawn) [TPI 2509-26, (R)-3-((4-(tert-butyl)cyclohexyl)methyl)-1-((R)-1-cyclohexyl-3-((S)-2-(((R)-2-imino-5-isopropylimidazolidin-1-yl)methyl)pyrrolidin-1-yl)propan-2-yl)-4-propylimidazolidin-2-imine]
